ChEMBL document CHEMBL1201862, “PubChem BioAssay data set” (2004)
“And” between values parts separate entries of the source, which are not always exact repeats. Identical values can stand only once.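 Dose response: 5 concentrations. Exposure: 48 h. Format: 96-well plates. Endpoint: linear interpolation; highest concentration if not reached. GI50 marks 50% less growth.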 The source made the active and inactive calls. Rule as the data show it: active = GI50 up to about 1.1 µM and inactive = higher.

Legend:
Assay in all cases: NCI tumour cell line growth inhibition, 48 h
[1] = test system: ACHN
[2] = test system: CCRF-CEM
[3] = test system: HCT-116
[4] = test system: HL-60
[5] = test system: HT-29
[6] = test system: IGROV-1
[7] = test system: Malme-3M
[8] = test system: NCI-H226
[9] = test system: OVCAR-3
[10] = test system: OVCAR-4
[11] = test system: RXF 393
[12] = test system: SN12C
[13] = test system: T47D
[14] = test system: UO-31
[15] = test system: EKVX
[16] = test system: MDA-MB-435
[17] = test system: NCI/ADR-RES
[18] = test system: PC-3

Measured: GI50

CC1OC(OC2C(OC(=O)[C@]34CCC(C)(C)C[C@H]3C3=CC[C@@H]5[C@@]6(C)CC[C@H](OC7OC(C(=O)O)C(O)C(O)C7O)C(C)(C)[C@@H]6CC[C@@]5(C)[C@]3(C)C[C@H]4O)OCC(O)C2O)C(O)C(O)C1OC1OCC(O)C(O)C1O (some centres undefined)
inactive: [1] 9.35 µM | [2] 17.5 µM and 19.9 µM | [3] 14.1 µM and 9.89 µM | [4] 8.93 µM | [5] 7.62 µM and 5.18 µM | [6] 15.2 µM and 13 µM | [7] 14.2 µM and 12 µM | [8] 4.57 µM and 7.19 µM | [9] 15.3 µM and 17.7 µM | [10] 17.8 µM | [11] 15.7 µM and 18.5 µM | [12] 2.38 µM and 4.59 µM | [13] 22.2 µM and 11.3 µM | [14] 7.29 µM and 11.6 µM

Cc1cc(OC(=O)Nc2ccc(Cl)cc2)ccc1C(=S)Nc1ccccc1
inactive: [1] 18.7 µM | [2] 20.7 µM | [15] 60.3 µM | [3] 28.6 µM | [4] 14 µM | [5] 24.5 µM | [6] > 100 µM | [16] 54 µM | [7] 53 µM | [17] 48.1 µM | [9] 50.6 µM | [10] 24.8 µM | [18] > 100 µM | [12] > 100 µM | [13] 34.2 µM | [14] 73.5 µM

CCCSc1ccc2[nH]c(/N=C/c3ccccc3)cc2c1
inactive: [1] 31.2 µM | [2] 13.5 µM | [15] 26.9 µM | [3] 17.7 µM | [5] 22.3 µM | [6] 31.8 µM | [16] 5.75 µM | [7] 16.6 µM | [17] 21.9 µM | [9] 22.1 µM | [10] 16.8 µM | [18] 34.1 µM | [11] 16.4 µM | [12] 27.3 µM | [13] 48 µM | [14] 30.3 µM

CCC(=O)Nc1ccc(NCC(=O)Nc2ccc(Cl)cc2)cc1
inactive: [1] 13.3 µM | [2] 12.5 µM | [15] 14 µM | [3] 14.4 µM | [4] 14.1 µM | [5] 10.6 µM | [6] 18.4 µM | [16] 15.7 µM | [7] 19.7 µM | [8] 18.2 µM | [17] 33.2 µM | [9] 15.7 µM | [10] 14 µM | [18] 15.1 µM | [11] 16.5 µM | [12] 17.1 µM | [13] 12.8 µM | [14] 22.3 µM
